According to ChEMBL document CHEMBL4699591, “An efficient synthesis tetrazole and oxadiazole analogues of novel 2'-deoxy-C-nucleosides and their antitumor activity” (2020):

Legend:
Type in all cases: functional
MDA-MB-231 [1] = test: Cytotoxicity against human MDA-MB-231 cells assessed as inhibition of cell growth at 10 uM incubated for 72 hrs by MTT assay relative to control
SK-OV-3 = test: Cytotoxicity against human SK-OV-3 cells assessed as inhibition of cell growth at 2 uM incubated for 72 hrs by MTT assay relative to control
PANC-1 = test: Cytotoxicity against human PANC-1 cells assessed as inhibition of cell growth at 2 uM incubated for 72 hrs by MTT assay relative to control
PC-3 = test: Cytotoxicity against human PC-3 cells assessed as inhibition of cell growth at 2 uM incubated for 72 hrs by MTT assay relative to control
HeLa = test: Cytotoxicity against human HeLa cells assessed as inhibition of cell growth at 2 uM incubated for 72 hrs by MTT assay relative to control
MDA-MB-231 [2] = test: Cytotoxicity against human MDA-MB-231 cells assessed as inhibition of cell growth at 2 uM incubated for 72 hrs by MTT assay relative to control

Row | SMILES | inhibition at 10 µM (MDA-MB-231 [1]) [%] | inhibition at 2 µM (SK-OV-3) [%] | inhibition at 2 µM (PANC-1) [%] | inhibition at 2 µM (PC-3) [%] | inhibition at 2 µM (HeLa) [%] | inhibition at 2 µM (MDA-MB-231 [2]) [%]
1 | CC(C)c1nc([C@H]2C[C@H](O)[C@@H](CO)O2)no1 | 9 | – | – | – | – | –
2 | COc1cccc2c1C(=O)c1c(O)c3c(c(O)c1C2=O)C[C@@](O)(C(=O)CO)C[C@@H]3O[C@H]1C[C@H](N)[C@H](O)[C@H](C)O1 [DOXORUBICIN] | – | > 90 | > 90 | > 90 | > 90 | > 90
3 | Cc1nnc([C@@H]2C[C@H](O)[C@@H](CO)O2)o1 | 9 | – | – | – | – | –
